According to publication PMC4850295, “Using a Genetically Encoded Sensor to Identify Inhibitors of Toxoplasma gondii Ca^2+ Signaling” (The Journal of Biological Chemistry, 2016):
Values joined by “and” are separate entries in the source; they are usually repeats but may differ in a detail not shown here. Equal values may be shown once.

Test system: T1, GCaMP5-expressing T. gondii
T1 construct: whole extracellular parasites expressing GCaMP5 Ca2+ sensor
Design: species or system GCaMP5-expressing Toxoplasma gondii, extracellular; GCaMP5 fluorescence (cytosolic Ca2+) after 100 uM zaprinast in compound-pretreated extracellular parasites, background-subtracted, relative to zaprinast alone
Conditions: 100 uM zaprinast stimulation, 10 min pretreatment, mean of two replicates, 0.23 h, 10 µM
Description: GCaMP5-expressing parasites were suspended in Ringer's solution at 4 × 10^7 parasites/ml, and 50 μl of parasites were applied to each well of a 96-well plate (Costar, catalog no. 3631). […] Parasites were then treated with 100 μM zaprinast or 0.1% DMSO as a vehicle control and incubated at 37 °C with 5% CO2 for an additional 4 min before measuring fluorescence with excitation and emission wavelengths of 485 and 525 nm, respectively, on a SpectraMax M3 (Molecular Devices). Basal fluorescence, measured from untreated parasites, was subtracted from all values, and results were expressed as -fold change from parasites treated only with zaprinast. Z′ factors were determined from (i) parasites treated with zaprinast versus untreated parasites and (ii) parasites treated with a final concentration of 1 μM Cpd2 or a vehicle control followed by zaprinast, using the formula, Z′ = 1 − 3(σp + σn)/(|μp − μn|), where σp and σn indicate S.D. values of positive and negative controls, and μp and μn indicate the means of positive and negative controls, respectively. […] We predicted that the zaprinast response measured in GCaMP5-expressing parasites could form the basis for a phenotypic screen. Such a screen would benefit from the known importance of Ca^2+ signaling in parasite biology along with the reported success rate of cell-based phenotypic assays. We designed a screen wherein extracellular GCaMP5-expressing parasites were pretreated with compounds for 10 min before stimulation with zaprinast, and parasite fluorescence was measured 4 min later. We expected that compounds that interfered with the zaprinast response would reduce fluorescence. We calculated a Z′-factor for this screen to determine its dynamic range and suitability to high throughput screening. To do so, we compared zaprinast-treated parasites to untreated parasites or those pretreated with the PKG inhibitor Compound 2 (Cpd2) ([55]). […] We obtained the compound libraries published kinase inhibitor sets PKIS1 ([57]) and PKIS2 (unpublished), from GlaxoSmithKline and applied our phenotypic screen to the 823 ATP mimetics represented in these collections (Fig. 2B and supplemental Table S1). The compounds were screened at a single 10 μM dose with two biological replicates.

Row | SMILES | fold change in fluorescence relative to zaprinast alone
1 | NS(=O)(=O)c1cccc(Nc2cc(-c3ccc(F)cc3)n[nH]2)c1 [GW824645A] | 1.167 and 1.492
2 | Nc1ncnc2occ(-c3ccc(NC(=O)Nc4cc(C(F)(F)F)ccc4F)cc3)c12 [GW770249A] | 0.2788
3 | Nc1ncnc2occ(-c3ccc(NC(=O)Nc4cc(C(F)(F)F)ccc4F)cc3)c12 [SB-707548-A] | 1.011 and 0.2784

Same assay, conditions: 100 uM zaprinast stimulation; 10 min pretreatment; mean of two replicates; 0.23 h

Row | SMILES | fold change in fluorescence relative to zaprinast alone
4 | Fc1cc(Cl)ccc1Nc1ccnc2cc(-c3ccc(CN4CCCCC4)o3)ccc12 [GW560116X] | 0.6823
5 | Cc1ccc(NC(=O)c2cccc(C#N)c2)cc1-c1ccc(C(=O)Nc2ccncc2)cc1 [GSK1398463A] | 1.609
6 | OCc1ccc(-c2nc(-c3ccc4c(c3)OCO4)c(-c3ccccn3)[nH]2)cc1 [SB-431533] | 1.145
7 | COC(=O)Nc1nc2ccc(S(=O)(=O)c3ccc(NC(=O)Nc4cc(C(F)(F)F)ccc4F)cc3)cc2[nH]1 [GW680908A] | 1.018
8 | CS(=O)(=O)Nc1ccc(N/C=C2\C(=O)Nc3ccccc32)cc1 [GW278681X] | 1.254
9 | CN(c1ccc(NC(=O)Nc2ccc(OC(F)(F)F)cc2)cc1)c1ccnc(Nc2cccc(S(N)(=O)=O)c2)n1 [GW806742X] | 0.4394
10 | COc1cccc(NC(=O)NC2CCN(c3ccnc(Nc4ccc(F)cc4)n3)C2)c1 (stereo not drawn) [GSK1379721A] | 0.358
11 | COc1ccc(Nc2nccc(N3CCC(NC(=O)c4cc5ccccc5s4)C3)n2)cc1 (stereo not drawn) [GSK1379738A] | 0.9419
12 | CC(C)c1ccc(O)cc1Nc1ccnc2ccc(C(F)(F)F)cc12 [GW482059X] | 1.143
13 | N#Cc1cccc(C(=O)NC2CCN(c3ccnc(Nc4ccc(F)cc4)n3)C2)c1 (stereo not drawn) [GSK1379708A] | 1.095
14 | COc1cccc(-c2cc(-c3cn[nH]c3-c3ccccn3)ccn2)c1 [GW680338X] | 0.8974
15 | COc1cccc(CNC(=O)NC2CCN(c3ccnc(Nc4ccc(F)cc4)n3)C2)c1 (stereo not drawn) [GSK1379723A] | 0.5252
16 | COC(=O)c1cccc(NC(=O)NC2CCN(c3ccnc(Nc4ccc(F)cc4)n3)C2)c1 (stereo not drawn) [GSK1379725A] | 0.2001
17 | CCn1c(-c2ccccc2)nc2cnccc21 [SB-733416] | 1.146
18 | Nc1ncc(-c2ccc3nccc(-c4ccncc4)c3c2)cc1S(=O)(=O)N1CCOCC1 [GSK1627798A] | 1.041
19 | Fc1cccc(COc2ccc(Nc3ncnc4sc(-c5cccs5)cc34)cc2Cl)c1 [GW684626B] | 0.9792
20 | CN1CCC(n2cnc(-c3ccc(F)cc3)c2-c2ccnc(Nc3ccccc3)n2)CC1 [SB-236687] | 1.382
21 | O=C(NCc1cccs1)c1cc(C(=O)c2c(Cl)cccc2Cl)c[nH]1 [GW823670X] | 1.033
22 | Nc1nccc(-c2c(-c3ccc(F)cc3)ncn2C2CCN(CC(F)(F)F)CC2)n1 [SB-236560] | 0.7968
23 | c1ccc(-c2n[nH]cc2-c2ccnc(-c3ccc(OCCN4CCOCC4)cc3)c2)nc1 [GW695874X] | 1.104
24 | Clc1ccc(-c2cc(-c3cn[nH]c3-c3ccccn3)ccn2)cc1 [GW681251X] | 1.448
25 | Nc1nc(N)c2[nH]c(-c3ccccc3)nc2n1 [SKF-12778] | 1.022
26 | CCn1c(-c2nonc2N)nc2c(C#CC(C)(C)O)nc(O[C@@H](CN)c3ccccc3)cc21 [GSK1007102B] | 1.188
27 | ON=C1CCc2cc(-c3nc(C4CCNCC4)[nH]c3-c3ccncc3)ccc21 [SB-614067-R] | 1.048

Row | SMILES | fold change in fluorescence relative to zaprinast alone
28 | CCCNc1cccc(-n2ncc3c(N/N=C/c4ccncc4)ncnc32)c1 [GW794607X] | 0.688
29 | COC(=O)Nc1nc2cc(Oc3ccc(NC(=O)Nc4cccc(C(=O)O)c4)cc3)ccc2[nH]1 [GW701427A] | 1.188
30 | COc1cccc(C2=C(Nc3ccc(Cl)c(C(=O)O)c3)C(=O)NC2=O)c1 [SB-390769] | 1.176
31 | c1ccc(Nc2ncc(-c3ccccc3)o2)cc1 [GW549390X] | 1.88
32 | Cc1ccc(O)cc1Nc1ccnc2ccc(C(C)(C)C)cc12 [GW856805X] | 0.3414
33 | CC(C)S(=O)(=O)N1CCN(Cc2ccc3c(c2)nc(NC(=O)c2ccsc2)n3C[C@H](O)c2ccccc2)CC1 [GW635815X] | 1.196
34 | Cc1ccc2c(-c3ccnc(Nc4ccc5c(c4)OCCO5)n3)c(-c3ccc(C(F)(F)F)cc3)nn2n1 [GW832467X] | 0.6662
35 | CS(=O)(=O)CCNCc1ccc(-c2ccc3ncnc(Nc4ccc(OCc5ccccc5)c(C(F)(F)F)c4)c3c2)o1 [GW574782A] | 0.7605
36 | OCCCNc1nccc(-c2c(-c3cccc(C(F)(F)F)c3)nn3cc(C(F)(F)F)ccc23)n1 [GW630813X] | 1.109
37 | Cc1cccc2c(-c3ccncn3)c(-c3ccc(F)cc3)nn12 [GW515532X] | 0.6118
38 | O=C(Nc1n[nH]c2cc(-c3ccccc3)ccc12)C1CC1 [SB-732941] | 1.147
39 | Cc1cccc(Nc2nc(N[C@H]3CCCC[C@H]3N)ncc2C(N)=O)c1 [GSK986310C] | 1.388
40 | COc1ccc(C2=C(Nc3cccc(O)c3)C(=O)NC2=O)cc1 [SB-390766] | 1.133
41 | COc1cccc(C2=C(Nc3cccc(O)c3)C(=O)NC2=O)c1 [SB-390771] | 0.8334
42 | O=C(Nc1ccc2c(c1)OCO2)NC1CCN(c2ccnc(Nc3ccc(F)cc3)n2)C1 (stereo not drawn) [GSK1379724A] | 0.9401
43 | COc1cc2ncn(-c3cc(OCc4cccs4)c(C(N)=O)s3)c2cc1OC [GSK312948A] | 1.205
44 | NCCCC(NC(=O)c1cc(Br)c(-c2ccnc3[nH]ccc23)s1)c1ccccc1 (stereo not drawn) [GSK1287544A] | 0.7469
45 | CN(C)c1cc(-c2ccc3c(N)n[nH]c3c2)nc(N)n1 [GSK2219329A] | 0.9361
46 | COc1cc2ncnc(Nc3ccc4c(cnn4Cc4ccccc4)c3)c2cc1OC [GW282449A] | 1.119
47 | Cc1cc(O)cc(C)c1/C=C/c1cncc(C(N)=O)c1 [GW435821X] | 1.076
48 | [O-][S+]1CCN(Cc2ccc(-c3ccc4ncnc(Nc5ccc(OCc6ccccc6)c(F)c5)c4c3)o2)CC1 [GW576924A] | 0.1384
49 | COc1ccc(CNC(=O)NC2CCN(c3ccnc(Nc4ccc(OC)cc4)n3)C2)cc1 (stereo not drawn) [GSK1379727A] | 1.253
50 | CCCN1CCC(Oc2cc(Nc3nc(Nc4cccc(F)c4C(N)=O)c4cc[nH]c4n3)c(OC)cc2Cl)CC1 [GSK1713088A] | 1.364

Same assay, conditions: 0.23 h, 10 µM

Row | SMILES | % of control remaining
51 | NS(=O)(=O)c1ccc(Nc2ncc(-c3ccccc3)o2)cc1 [GW572399X] | 1.225
